In US12344610B2, “APOL1 inhibitors and methods of use” (Maze Therapeutics, Inc., priority 2022, dated 2025):

Assays:
[1] = test system: HEK293 cells overexpressing APOL1 G2; assay: APOL1 G2 HEK293 cell rescue assay (reversal of cell death caused by overexpression of APOL1); type: cell-based; settings: geometric mean of at least 2 assay runs, † = single assay run
In short: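 Each compound tested in duplicate wells on one plate per run, with values usually the geometric mean across at least two runs on different days, occasionally from one run only. Read-out: concentration giving half-maximal rescue of APOL1 G2 overexpression-induced death of HEK293 cells.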

[2] = test system: Trypanosoma brucei Lister 427 VSG221 with APOL1 G0 recombinant protein; assay: APOL1 G0 trypanosome cell rescue assay (Example B5); type: cell-based; settings: Trypanosoma brucei, 20 h, read-out: APOL1 G0 Trypanosome Rescue EC50, Trypanosoma brucei Lister 427 VSG221 with APOL1 G0 recombinant protein, 20 hours, CellTiter-Glo; geometric mean of at least 2 assay runs; † = single assay run
In short: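 Luminescent ATP read-out (CellTiter-Glo) of trypanosome viability after 20 h at 37° C. Bloodstream T. brucei Lister 427 VSG221, 250/well in modified HMI-9, were exposed to recombinant mature APOL1 (aa 28-398) from a 2 μg/mL addition, plus compound in 11-point 2-fold series.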

[3] = Homo sapiens, HEK293, HEK293 overexpressing APOL1 G2

| Compound | EC50 [1, 3] | EC50 [2] | EC50 ([1]; HEK293 overexpressing APOL1 G2) |
| --- | --- | --- | --- |
| CN(C)C(=O)C1(c2ccc(OCCN3CCC4(CC3)C(=O)Nc3ccc(C#N)cc34)cc2)COC1 [Compound 254, 3-[4-(2-{5-cyano-2-oxo-1,2-dihydrospiro[indole-3,4′-piperidin]-1′-yl}ethoxy)phenyl]-N,N-dimethyloxetane-3-carboxamide] | 175 nM | 695 nM | – |
| CS(=O)(=O)c1ccc(OCCN2CCC3(CC2)C(=O)N(CCO)c2ccc(Cl)cc23)cc1 [Compound 18, 5-chloro-1-(2-hydroxyethyl)-1′-[2-(4-methanesulfonylphenoxy)ethyl]-1,2-dihydrospiro[indole-3,4′-piperidin]-2-one] | 225 nM | 690 nM | – |
| CN(C)C(=O)C1(S(=O)(=O)c2ccc(OCCN3CCC4(CC3)C(=O)Nc3ccc(Cl)cc34)cc2)CC1 [Compound 227, 1-[4-(2-{5-chloro-2-oxo-1,2-dihydrospiro[indole-3,4′-piperidin]-1′-yl}ethoxy)benzenesulfonyl]-N,N-dimethylcyclopropane-1-carboxamide] | 47 nM | 142 nM | – |
| CNC(=O)N1CCc2cc(OCCN3CCC4(CC3)C(=O)Nc3ccc(Cl)cc34)ccc2C1 [Compound 245, 6-(2-{5-chloro-2-oxo-1,2-dihydrospiro[indole-3,4′-piperidin]-1′-yl}ethoxy)-N-methyl-1,2,3,4-tetrahydroisoquinoline-2-carboxamide] | 139 nM | 265 nM | – |
| O=C1Nc2ccc(Cl)cc2C12CCN(CCOc1ccc(S(=O)(=O)C3(CO)CC3)nc1)CC2 [Compound 248, 5-chloro-1′-{2-[(6-{[1-(hydroxymethyl)cyclopropyl]sulfonyl}pyridin-3-yl)oxy]ethyl}-1,2-dihydrospiro[indole-3,4′-piperidin]-2-one] | 58.4 nM | 86.2 nM | – |
| CS(=O)(=O)C1(c2ccc(OCCN3CCC4(CC3)C(=O)Nc3ccc(C(F)F)cc34)cc2)CC(O)C1 (single isomer, unassigned) [Compound 281, 5-(difluoromethyl)-1′-(2-{4-[(cis) or (trans)-3-hydroxy-1-methanesulfonylcyclobutyl]phenoxy}ethyl)-1,2-dihydrospiro[indole-3,4′-piperidin]-2-one] | – | 95.9 nM | 56 nM |
| CS(=O)(=O)c1ccc(OCCN2CCC3(CC2)C(=O)Nc2ccc(Cl)cc23)cc1C(O)CO (stereo not shown) [Compound 216, 5-chloro-1′-{2-[3-(1,2-dihydroxyethyl)-4-methanesulfonylphenoxy]ethyl}-1,2-dihydrospiro[indole-3,4′-piperidin]-2-one] | 281 nM | 629 nM | – |
| CNC(=O)C1(S(=O)(=O)c2ccc(OCCN3CCC4(CC3)C(=O)Nc3ccc(Cl)cc34)cc2)CC1 [Compound 226, 1-[4-(2-{5-chloro-2-oxo-1,2-dihydrospiro[indole-3,4′-piperidin]-1′-yl}ethoxy)benzenesulfonyl]-N-methylcyclopropane-1-carboxamide] | 43 nM | 80 nM | – |
| O=C(c1ccc(OCCN2CCC3(CC2)C(=O)Nc2ccc(Cl)cc23)cc1F)N1CC2(C1)CS(=O)(=O)C2 [Compound 239, 6-[4-(2-{5-chloro-2-oxo-1,2-dihydrospiro[indole-3,4′-piperidin]-1′-yl}ethoxy)-2-fluorobenzoyl]-2λ^6-thia-6-azaspiro[3.3]heptane-2,2-dione] | 77.9 nM | 40 nM | – |
| O=C1CCc2cc(OCCN3CCC4(CC3)C(=O)Nc3ccc(Cl)cc34)cnc2N1CCO [Compound 192, 5-chloro-1′-(2-{[8-(2-hydroxyethyl)-7-oxo-5,6,7,8-tetrahydro-1,8-naphthyridin-3-yl]oxy}ethyl)-1,2-dihydrospiro[indole-3,4′-piperidin]-2-one] | 41.1 nM | 108 nM | – |
| CN1C(=O)C2(CCN(CCOc3ccc(C(=O)N4CCS(=O)(=O)CC4)c(C(F)(F)F)c3)CC2)c2cc(C#N)ccc21 [Compound 261, 1′-{2-[4-(1,1-dioxo-1λ^6-thiomorpholine-4-carbonyl)-3-(trifluoromethyl)phenoxy]ethyl}-1-methyl-2-oxo-1,2-dihydrospiro[indole-3,4′-piperidine]-5-carbonitrile] | 89 nM | 84 nM | – |
| O=C(c1ccc(OCCN2CCC3(CC2)C(=O)Nc2ccc(Cl)cc23)cc1F)N1CCC1 [Compound 234, 1′-{2-[4-(azetidine-1-carbonyl)-3-fluorophenoxy]ethyl}-5-chloro-1,2-dihydrospiro[indole-3,4′-piperidin]-2-one] | 80.3 nM | 272 nM | – |
| CN1C(=O)CCc2cc(OCCN3CCC4(CC3)C(=O)Nc3ccc(Cl)cc34)ccc21 [Compound 27, 5-chloro-1′-[2-[(1-methyl-2-oxo-3,4-dihydroquinolin-6-yl)oxy]ethyl]spiro[indoline-3,4′-piperidine]-2-one] | 62 nM | 201 nM | – |
| CS(=O)(=O)C1(c2ccc(OCCN3CCC4(CC3)C(=O)Nc3ccc(Cl)cc34)cc2)COC1 [Compound 195, 5-chloro-1′-{2-[4-(3-methanesulfonyloxetan-3-yl)phenoxy]ethyl}-1,2-dihydrospiro[indole-3,4′-piperidin]-2-one] | 39.4 nM | 48.2 nM | – |
| C[C@]1(O)C[C@@H](N2C(=O)OCc3cc(OCCN4CCC5(CC4)C(=O)Nc4ccc(Cl)cc45)cnc32)C1 [Compound 289, 5-chloro-1′-[2-({2-oxo-1-[(cis)-3-hydroxy-3-methylcyclobutyl]-1H,2H,4H-pyrido[2,3-d][1,3]oxazin-6-yl]oxy)ethyl]-1,2-dihydrospiro[indole-3,4′-piperidin]-2-one] | 16.7 nM | 38.2 nM | – |
| CS(=O)(=O)c1ccc(OCCN2CCCC3(CC2)C(=O)Nc2ccccc23)cc1 (stereo not shown) [Compound 26, 1-(2-(4-(methylsulfonyl)phenoxy)ethyl)spiro[azepane-4,3′-indolin]-2′-one] | 1760 nM | > 4000 nM | – |
| Cc1n[nH]cc1-c1ccc(OCCN2CCC3(CC2)C(=O)Nc2ccc(Cl)cc23)cc1 [Compound 244, 5-chloro-1′-{2-[4-(5-methyl-1H-pyrazol-4-yl)phenoxy]ethyl}-1,2-dihydrospiro[indole-3,4′-piperidin]-2-one] | 70.4 nM | 141 nM | – |
| CC(COc1ccc2c(c1)CCC(=O)N2C)N1CCC2(CC1)C(=O)Nc1ccc(C#N)cc12 (single isomer, unassigned) [Compound 203, (S) or (R)-1′-{1-[(1-methyl-2-oxo-1,2,3,4-tetrahydroquinolin-6-yl)oxy]propan-2-yl}-2-oxo-1,2-dihydrospiro[indole-3,4′-piperidine]-5-carbonitrile] | – | 565 nM | 187 nM |
| CC(COc1ccc(C2(S(C)(=O)=O)COC2)cc1)N1CCC2(CC1)C(=O)Nc1ccc(C#N)cc12 (single isomer, unassigned) [Compound 263, (S) or (R)-1′-{1-[4-(3-methanesulfonyloxetan-3-yl)phenoxy]propan-2-yl}-2-oxo-1,2-dihydrospiro[indole-3,4′-piperidine]-5-carbonitrile] | – | 226 nM | 198 nM |
| CS(=O)(=O)c1ccc(OCCN2CCC3(CC2)C(=O)N(CCO)c2ccc(Cl)cc23)cc1C(F)F [Compound 265, 5-chloro-1′-{2-[3-(difluoromethyl)-4-methanesulfonylphenoxy]ethyl}-1-(2-hydroxyethyl)-1,2-dihydrospiro[indole-3,4′-piperidin]-2-one] | 30 nM | 67.6 nM | – |
| NC1CN(C(=O)c2ccc(OCCN3CCC4(CC3)C(=O)Nc3ccc(Cl)cc34)cc2F)C1 [Compound 236, 1′-{2-[4-(3-aminoazetidine-1-carbonyl)-3-fluorophenoxy]ethyl}-5-chloro-1,2-dihydrospiro[indole-3,4′-piperidin]-2-one] | 45 nM | 766 nM | – |
| CN1C(=O)C2(CCN(CCOc3ccc(S(=O)(=O)CCCS(C)(=O)=O)cc3)CC2)c2cc(Cl)ccc21 [Compound 23, 5-chloro-1′-{2-[4-(3-methanesulfonylpropanesulfonyl)phenoxy]ethyl}-1-methyl-1,2-dihydrospiro[indole-3,4′-piperidin]-2-one] | 135 nM | 321 nM | – |
| C[C@]1(O)C[C@@H](N2C(=O)CCc3cc(OCCN4CCC5(CC4)C(=O)Nc4ccc(Cl)cc45)cnc32)C1 [Compound 275, 5-chloro-1′-[2-({7-oxo-8-[(cis)-3-hydroxy-3-methylcyclobutyl]-5,6,7,8-tetrahydro-1,8-naphthyridin-3-yl}oxy)ethyl]-1,2-dihydrospiro[indole-3,4′-piperidin]-2-one] | 27 nM | 61.2 nM | – |
| O=C(c1c(F)cc(OCCN2CCC3(CC2)C(=O)Nc2ccc(Cl)cc23)cc1F)N1CCS(=O)(=O)CC1 [Compound 259, 4-[4-(2-{5-chloro-2-oxo-1,2-dihydrospiro[indole-3,4′-piperidin]-1′-yl}ethoxy)-2,6-difluorobenzoyl]-1λ^6-thiomorpholine-1,1-dione] | 37.5 nM | 68 nM | – |
| C[C@@H](COc1ccc(S(C)(=O)=O)c(C(F)F)c1)N1CCC2(CC1)C(=O)Nc1ccc(Cl)cc12 (single isomer, unassigned) [Compound 210] | 63.3 nM | 63.8 nM | – |
| C[C@]1(O)C[C@@H](N2C(=O)CCc3cc(OCCN4CCC5(CC4)C(=O)Nc4ccc(C(F)F)cc45)cnc32)C1 [Compound 274, 5-(difluoromethyl)-1′-[2-({7-oxo-8-[(cis)-3-hydroxy-3-methylcyclobutyl]-5,6,7,8-tetrahydro-1,8-naphthyridin-3-yl}oxy)ethyl]-1,2-dihydrospiro[indole-3,4′-piperidin]-2-one] | 34 nM | 59.3 nM | – |
